The values that follow come from patent US20060258703A1, “Remedy for pruritus comprising piperidine derivative as the active ingredient” (ONO PHARMACEUTICAL CO., LTD., priority 2003, published 2006).

Molecules are shown by their SMILES.

This assay has as its system ovalbumin-induced eye scratching behavior in actively sensitized male Hartley guinea pigs. As to the kind of experiment: inhibitory effect on eye itching using albumin induced eye itching model. It is filed as in vivo, guinea pig. The note with it: for number of eye scratching times / eye scratching behavior inhibition ratio: 10 μL/eye instilled 30 min before ovalbumin, n=8; for number of eye scratching times: counted for 60 min, average; for eye scratching behavior inhibition ratio: ratio to control (average). The method, then:
The inhibitory effect on eye itching of piperidine derivatives of the present invention was studied using albumin induced eye itching model.
1. The test of inhibitory effect on eye itching using albumin induced eye itching model
Aluminum hydroxide gel absorption ovalbumin (20 μg/mL)was dissolved in physiological saline solution, each solution ([…]) was injected subconjunctivally to the both eyeballs of five-week-old male Hartley guinea pigs to sensitize them actively. 14 days after sensitization, 1.0% (W/V) of ovalbumin physiological saline solution was instilled into both their eyes, 10 μL/eye, respectively.
As test compounds, a suspension of 0.01% (W/V) and 0.1% (W/V) of {4-cyano-4-[3-(cyclopentyloxy)-4-(difluoromethoxy)phenyl]piperidine-1-yl}acetic acid monohydrate (hereinafter, it is the compound A) in 0.1% hydroxypropylmethylcellulose was prepared and it was instilled into both eyes of the above-mentioned guinea pigs, 10 μL/eye, respectively, 30 minutes before the instillation of ovalbumin. 0.1% hydroxypropylmethylcellulose was used as control.
The behavior of guinea pigs for 60 minutes after ovalbumin instillation was video recorded. The inhibitory effect on eye itching was evaluated by counting each number of eye scratching times in case of instillation of each test compound solution and control. […] In addition, the number of example is eight. eye scratching behavior inhibition ratio=100−([the number of eye scratching times of the test compound]÷[the number of eye scratching times of control])×100

In the case of `N#CC1(c2ccc(OC(F)F)c(OC3CCCC3)c2)CCN(CC(=O)O)CC1.O` [Compound A, {4-cyano-4-[3-(cyclopentyloxy)-4-(difluoromethoxy)phenyl]piperidine-1-yl}acetic acid monohydrate], the “number of eye scratching times” value came out at 44.6 times (0.01% (W/V) suspension in 0.1% hydroxypropylmethylcellulose) and 29.0 times (0.1% (W/V) suspension in 0.1% hydroxypropylmethylcellulose). Also, the “eye scratching behavior inhibition ratio” value by setting is: (0.01% (W/V) suspension) 34.4%; (0.1% (W/V) suspension) 57.4%. Further, for the setting “guinea pigs given 0.01% and 0.1% eye instillation, extent almost depends on concentration”, the “number of eye scratching times compared to control (in words)” value is “decreases significantly compared to control”.
